Values of other authors, collected in US20090087484A1, “Formulation and dosage form for increasing oral bioavailability of hydrophilic macromolecules” (priority 2007, published 2009).
Read-outs that look alike come from different tables or passages of the source.

Legend:
[1] = in vivo

For `NC(=O)CC[C@@H]1NC(=O)[C@H](Cc2ccccc2)NC(=O)[C@H](Cc2ccc(O)cc2)NC(=O)CCSSC[C@@H](C(=O)N2CCC[C@H]2C(=O)N[C@H](CCCN=C(N)N)C(=O)NCC(N)=O)NC(=O)[C@H](CC(N)=O)NC1=O` [dDAVP, Desmopressin], the oral bioavailability [1] is given as “about 0.15%”.

In the case of pentosan polysulfate sodium [PPS], the “elimination half-life in urine” value (after oral administration) is listed as 4.8 h, the oral bioavailability (in humans) is listed as “approximately 3%” and the elimination half-life (mean value, following IV injection) is listed as 24 h.
